Source: patent publication US9169217B2, “Arylalkyl esters of 4-amino-6-(substituted phenyl)-picolinates and 6-amino-2-(substituted phenyl)-pyrimidinecarboxylates and their use as selective herbicides for crops” (Dow AgroSciences LLC, priority 2011, dated 2015)

Key:
Type in all cases: in vivo
[1] = system: Leptochloa chinensis (L.) NEES (Chinese sprangletop); test: In-water applied herbicidal activity in transplanted paddy rice (Example 17); conditions: LEFCH, probit analysis; for GR50: 50% growth reduction; for GR80: 80% growth reduction; for GR90: 90% growth reduction
How it was run: (§1)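 Ester forms of test compounds, in acetone diluted with aqueous Agri-dex (final 1.25% v/v crop oil concentrate), were injected into the flood water of paddy pots holding weeds or rice at the 2nd–3rd leaf stage in mud (pH ~7.3–7.8). Visual injury versus untreated plants was scored 0–100% after 3 weeks in greenhouse (~29/26 °C). GR50/GR80 were derived by probit analysis.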

Kochia scoparia (Kochia) = test: Postemergence herbicidal activity in cereal crops (Example 14); conditions: wheat cropping systems, postemergence spray, 35 g ae/ha, 21 DAA
Procedure: (§2) Seeds of the desired test plant species were planted in Sun Gro Metro-Mix® 360 planting mixture, which typically has a pH of 6.0 to 6.8 and an organic matter content of about 30 percent, in plastic pots with a surface area of 84.6 cm^2. When required to ensure good germination and healthy plants, a fungicide treatment and/or other chemical or physical treatment was applied. The plants were grown for 7-36 d in a greenhouse with an approximate 14 h photoperiod which was maintained at about 18° C. during the day and 17° C. during the night. Nutrients and water were added on a regular basis and supplemental lighting was provided with overhead metal halide 1000-Watt lamps as necessary. The plants were employed for testing when they reached the second or third true leaf stage.
(§3) Treatments consisted of esters of compounds 33, 34, 39, 40 and 42 and B, F, G and H. Compound B is methyl 4-amino-3-chloro-6-(4-cyclopropylphenyl)-5-fluoropicolinate; compound F is methyl 6-amino-2-(4-chloro-2-fluoro-3-methoxyphenyl)-5-methoxypyrimidine-4-carboxylate; compound G is methyl 4-amino-3-chloro-6-(4-chloro-2-fluoro-3-methoxyphenyl)picolinate; and compound H is methyl 4-amino-3-chloro-6-(4-chloro-2-fluoro-3-(1-fluoroethyl)phenyl)-5-fluoropicolinate. A weighed amount, determined by the highest rate to be tested, of each test compound was placed in a 25 mL glass vial and was dissolved in 8 mL of a 97:3 v/v mixture of acetone and DMSO to obtain concentrated stock solutions. […] The concentrated stock solutions obtained were diluted with 16 mL of an aqueous mixture containing acetone, water, isopropyl alcohol, DMSO, Agri-dex crop oil concentrate, and Triton® X-77 surfactant in a 64.7:26.0:6.7:2.0:0.7:0.01 v/v ratio to obtain spray solutions containing the highest application rates. Additional application rates were obtained by serial dilution of 12 mL of the high rate solution into a solution containing 4 mL of a 97:3 v/v mixture of acetone and DMSO and 8 mL of an aqueous mixture containing acetone, water, isopropyl alcohol, DMSO, Agri-dex crop oil concentrate, and Triton® X-77 surfactant in a 48.5:39.0:10.0:1.5:1.0:0.02 v/v ratio to obtain ½×, ¼×, ⅛× and 1/16× rates of the high rate. Compound requirements are based upon a 12 mL application volume at a rate of 187 L/ha. Formulated compounds were applied to the plant material with an overhead Mandel track sprayer equipped with 8002E nozzles calibrated to deliver 187 L/ha over an application area of 0.503 m^2 at a spray height of 18 inches (43 cm) above average plant canopy height. Control plants were sprayed in the same manner with the blank.
(§4) The treated plants and control plants were placed in a greenhouse as described above and watered by sub-irrigation to prevent wash-off of the test compounds. After 20-22 d, the condition of the test plants as compared with that of the untreated plants was determined visually and scored on a scale of 0 to 100 percent where 0 corresponds to no injury and 100 corresponds to complete kill.

[2] = system: Salsola kali (Thistle, Russian); test: as above; conditions: wheat cropping systems, postemergence spray, 35 g ae/ha, 21 DAA
Procedure: as §2, §3, §4

[3] = system: Cyperus rotundus L. (purple nutsedge); test: In-water applied herbicidal activity in transplanted paddy rice (Example 17); conditions: rice cropping systems, 35 g ae/ha, 21 DAA, may represent multiple trials
How it was run: as §1

SMILES: COc1c(Cl)ccc(-c2nc(C(=O)OCc3ccccc3)c(Cl)c(N)c2F)c1F [Compound 1, benzyl 4-amino-3-chloro-6-(4-chloro-2-fluoro-3-methoxyphenyl)-5-fluoropicolinate]
- GR50 [1]: 50.4 g ae/ha
- GR80 [1]: 78.6 g ae/ha
- GR90 [1]: 99.1 g ae/ha

SMILES: COc1c(Cl)ccc(-c2cc(N)c(Cl)c(C(=O)OCc3ccccc3)n2)c1F [Compound 39]
- Visual Injury (%) KCHSC (Kochia scoparia (Kochia)): 95%
- Visual Injury (%) SASKR [2]: 90%
- Visual Injury (%) CYPRO [3]: 80%

SMILES: COC(=O)c1nc(-c2ccc(Cl)c(OC)c2F)cc(N)c1Cl [Compound G, methyl 4-amino-3-chloro-6-(4-chloro-2-fluoro-3-methoxyphenyl)picolinate, reference compound]
- Visual Injury (%) KCHSC (Kochia scoparia (Kochia)): 87%
- Visual Injury (%) SASKR [2]: 80%
- Visual Injury (%) CYPRO [3]: 47%

SMILES: COC(=O)c1nc(-c2ccc(Cl)c(OC)c2F)c(F)c(N)c1Cl [E, methyl 4-amino-3-chloro-6-(4-chloro-2-fluoro-3-methoxyphenyl)-5-fluoropicolinate, reference compound]
- GR50 [1]: 59.9 g ae/ha
- GR80 [1]: 99.4 g ae/ha
- GR90 [1]: 130.0 g ae/ha
